Experimental data as given in ChEMBL document CHEMBL1148596, “Discovery of nonpeptidic small-molecule AP-1 inhibitors: lead hopping based on a three-dimensional pharmacophore model” (J Med Chem, 2006).

Assays:
Transcription factor AP1 [1] = target: T1, Transcription factor AP1 (Homo sapiens, UniProt P05412+P01100); test: Inhibitory activity on AP1 DNA-binding at 500 uM; assay type: protein-complex assay
Transcription factor AP1 [2] = target: T1, Transcription factor AP1; test: (§1) Inhibitory activity on AP1 using ELISA based AP1 DNA binding; assay type: protein-complex assay
Transcription factor AP1 [3] = target: T1, Transcription factor AP1; test: (§2) Inhibition of the expression of AP1-luciferase by TPA-stimulated NIH3T3 cells; assay type: cell-based; conditions: nih3t3
Transcription factor AP1 [4] = target: T1, Transcription factor AP1; test: Inhibitory activity on AP1 DNA-binding at 1 mM; assay type: protein-complex assay
Transcription factor AP1 [5] = target: T2, Transcription factor AP1 (Homo sapiens, UniProt P01100+P05412); test: as §1; assay type: protein-complex assay
Transcription factor AP1 [6] = target: T2, Transcription factor AP1; test: as §2; assay type: cell-based

T2 sequence (P05412 whole entry): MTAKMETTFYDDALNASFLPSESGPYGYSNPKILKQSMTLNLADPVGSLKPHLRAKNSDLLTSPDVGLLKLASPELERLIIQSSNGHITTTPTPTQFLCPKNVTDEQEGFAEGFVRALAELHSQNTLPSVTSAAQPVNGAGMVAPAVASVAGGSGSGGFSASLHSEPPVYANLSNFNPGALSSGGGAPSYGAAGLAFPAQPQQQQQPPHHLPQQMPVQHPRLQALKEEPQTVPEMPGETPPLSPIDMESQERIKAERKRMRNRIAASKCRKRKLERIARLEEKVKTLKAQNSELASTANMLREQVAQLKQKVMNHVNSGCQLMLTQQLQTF
T2 sequence (P01100 whole entry): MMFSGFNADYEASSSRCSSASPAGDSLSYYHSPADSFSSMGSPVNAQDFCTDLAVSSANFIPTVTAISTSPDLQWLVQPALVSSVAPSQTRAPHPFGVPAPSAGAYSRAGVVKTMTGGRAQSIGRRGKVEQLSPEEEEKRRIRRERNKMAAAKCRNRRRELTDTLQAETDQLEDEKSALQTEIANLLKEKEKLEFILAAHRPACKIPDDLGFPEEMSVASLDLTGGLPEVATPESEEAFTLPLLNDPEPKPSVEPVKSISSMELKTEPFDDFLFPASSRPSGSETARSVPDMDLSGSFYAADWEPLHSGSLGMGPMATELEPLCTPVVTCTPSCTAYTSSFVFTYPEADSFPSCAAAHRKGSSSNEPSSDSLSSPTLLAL
T1 sequence (P05412 whole entry): as the sequence (P05412 whole entry) above
T1 sequence (P01100 whole entry): as the sequence (P01100 whole entry) above

## CC(C)COc1ccc(C(=O)c2ccc(OCc3ccccc3)cc2)cc1CCC(=O)O
Transcription factor AP1 [1]
  inhibition: 45%

## CC(C)COc1ccc(C(=O)c2ccc(OCC(C)C)c(CCC(N)=O)c2)cc1
Transcription factor AP1 [1]
  inhibition: 5%

## CC(C)COc1ccc(C(=O)c2ccc(OCC(C)C)cc2)cc1
Transcription factor AP1 [1]
  inhibition: 3%

## CC(C)CC=C1CCC2(CC1)SC[C@@H](C(=O)O)N2C(=O)CCCC(C)C (stereo partly drawn)
Transcription factor AP1 [2]
  IC50: 460 µM
Transcription factor AP1 [3]
  IC50: 13.3 µM

## CC(C)COc1ccc(C(=O)c2cccc(CCC(=O)O)c2)cc1
Transcription factor AP1 [4]
  inhibition: 14%
Transcription factor AP1 [5]
  IC50: > 2000 µM
Transcription factor AP1 [1]
  inhibition: 10%

## CCCOc1ccc(C(=O)c2ccc(OCC(C)C)c(CCC(=O)O)c2)cc1
Transcription factor AP1 [4]
  inhibition: 42%
Transcription factor AP1 [5]
  IC50: 930 µM
Transcription factor AP1 [1]
  inhibition: 25%

## CC(C)COc1ccc(C(=O)c2ccc(OCC(C)C)c(CCC(=O)O)c2)cc1
Transcription factor AP1 [4]
  inhibition: 91%
Transcription factor AP1 [5]
  IC50: 610 µM
Transcription factor AP1 [1]
  inhibition: 28%
Transcription factor AP1 [6]
  IC50: 5 µM

## CC(C)COc1ccc(C(=O)c2ccc(OCc3ccccc3)c(CCC(=O)O)c2)cc1
Transcription factor AP1 [4]
  inhibition: 97%
Transcription factor AP1 [5]
  IC50: 420 µM
Transcription factor AP1 [1]
  inhibition: 51%

## CC(C)CCC=C1CCC2(CC1)SC[C@@H](C(=O)O)N2C(=O)CCC(C)C (stereo partly drawn)
Transcription factor AP1 [2]
  IC50: 650 µM
Transcription factor AP1 [3]
  IC50: 11.8 µM

## CC(C)COc1cccc(C(=O)c2ccc(OCC(C)C)c(CCC(=O)O)c2)c1
Transcription factor AP1 [5]
  IC50: 600 µM
Transcription factor AP1 [6]
  IC50: 5.8 µM

## CCCOc1ccc(C(=O)c2ccc(OCC(C)C)cc2)cc1CCC(=O)O
Transcription factor AP1 [4]
  inhibition: 55%
Transcription factor AP1 [5]
  IC50: 910 µM
Transcription factor AP1 [1]
  inhibition: 26%

## CC(C)COc1ccc(C(=O)c2ccccc2)cc1CCC(=O)O
Transcription factor AP1 [4]
  inhibition: 9%
Transcription factor AP1 [5]
  IC50: > 2000 µM
Transcription factor AP1 [1]
  inhibition: 7%
